Data on twelve compounds can be found in ChEMBL document CHEMBL1201862, “PubChem BioAssay data set” (2004).

Molecules are shown by their SMILES.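 Method: 48-hour compound exposure of cells in 96-well plates, five concentrations, linear interpolation of endpoints. The concentration for 50% growth inhibition is given as GI50.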 Activity calls are given as the source filed them. Rule as the data show it: active = GI50 up to about 1.1 µM and inactive = higher.

Among the test systems are SF-268; MOLT-4; NCI-H23; OVCAR-4; KM12; SF-539; RPMI-8226; SK-OV-3; 786-0; HT-29; M14; SF-295; OVCAR-8; SNB-75; IGROV-1; HOP-62; SN12C.
Experiment in all cases: NCI anticancer screen, dose series, 48 h

Regarding `O=C(CC(=O)n1nc(-c2ccccc2)c(/N=N/c2ccc(Cl)cc2)c1-c1ccccc1)Nc1ccc(Cl)cc1`, the GI50 with SF-268 was > 88.7 µM (inactive); in the experiment with MOLT-4, > 100 µM (inactive); in the experiment on NCI-H23, > 100 µM (inactive); in the experiment on OVCAR-4, > 100 µM (inactive); in the experiment with KM12, 48.6 µM (inactive); in the experiment on SF-539 it was > 100 µM (inactive). Besides, the GI50 with RPMI-8226 is > 46.3 µM (inactive); in the experiment on SK-OV-3 it was > 100 µM (inactive); in the experiment with 786-0, > 43.3 µM (inactive); with HT-29, > 43.3 µM (inactive); with M14, > 100 µM (inactive); in the experiment with SF-295, > 100 µM (inactive). The GI50 in the experiment on OVCAR-8 was 63.4 µM (inactive); in the experiment on SNB-75, > 50.5 µM (inactive); in the experiment on IGROV-1, > 100 µM (inactive); with HOP-62 it was > 100 µM (inactive); with SN12C, > 100 µM (inactive).

For `CCOC(=O)C1=C(Nc2ccc(Cl)cc2Cl)OC/C1=N\NS(=O)(=O)c1ccc(C)cc1`, the GI50 in the experiment on SF-268, with MOLT-4, with NCI-H23, in the experiment with OVCAR-4, in the experiment with KM12 and in the experiment on SF-539 was > 100 µM (inactive) each time. Further, the GI50 with SK-OV-3, in the experiment with 786-0, with HT-29, in the experiment on M14, in the experiment with SF-295 and with OVCAR-8 was > 100 µM (inactive) throughout. Moreover, the GI50 with SNB-75, in the experiment with IGROV-1, in the experiment with HOP-62 and in the experiment with SN12C was > 100 µM (inactive) throughout.

Consider `Cc1ccccc1C(=O)c1c(O)c2c(c(O)c1Br)CCCC2`, for which the GI50 was 15 µM (inactive) in the experiment with SF-268; 6.14 µM (inactive) with MOLT-4; 26.2 µM (inactive) in the experiment with NCI-H23; 14.9 µM (inactive) with OVCAR-4; 16.6 µM (inactive) in the experiment with KM12; 18.5 µM (inactive) with SF-539. Further, the GI50 with RPMI-8226 is 20.1 µM (inactive); in the experiment with SK-OV-3, 21.8 µM (inactive); in the experiment with 786-0, 14.5 µM (inactive); in the experiment on HT-29 it was 27.9 µM (inactive); in the experiment with M14, 14 µM (inactive); in the experiment with SF-295, 21.2 µM (inactive). Besides, the GI50 in the experiment with OVCAR-8 is 17.3 µM (inactive); in the experiment with SNB-75 it was 18.7 µM (inactive); with IGROV-1, 20.7 µM (inactive); with HOP-62 it was 37.2 µM (inactive); in the experiment on SN12C, 18.1 µM (inactive).

With `CCOC1=CP(=O)(OCC)CC(C)=C1Cl` (configuration not stated), the GI50 with SF-268, in the experiment on MOLT-4, in the experiment on NCI-H23, with KM12, with SF-539 and in the experiment on RPMI-8226 was > 100 µM (inactive) throughout. The GI50 in the experiment with SK-OV-3, in the experiment on 786-0, with HT-29, with M14, in the experiment with SF-295 and with OVCAR-8 was > 100 µM (inactive) in each case. Moreover, the GI50 in the experiment on SNB-75 is 30.4 µM (inactive); in the experiment on IGROV-1, > 100 µM (inactive); in the experiment with HOP-62 it was > 100 µM (inactive); in the experiment on SN12C, > 100 µM (inactive).

`COC1/C(=C\c2ccccc2I)c2ccccc2N1C(C)=O` (configuration not stated): the GI50 is 14.1 µM (inactive) in the experiment with MOLT-4; 15.7 µM (inactive) in the experiment with NCI-H23; 16.2 µM (inactive) with OVCAR-4; 15.6 µM (inactive) in the experiment with KM12; 16.4 µM (inactive) with SF-539; 8.87 µM (inactive) in the experiment on RPMI-8226. For the same compound, the GI50 in the experiment on 786-0 is 18.1 µM (inactive); in the experiment on HT-29, 15.6 µM (inactive); with SF-295, 14.3 µM (inactive); with OVCAR-8, 30 µM (inactive); in the experiment on SNB-75, 14.3 µM (inactive); in the experiment with IGROV-1, 18.1 µM (inactive). In addition, the GI50 is 17.2 µM (inactive) with HOP-62 and 15.2 µM (inactive) in the experiment with SN12C.

Take `C=C1CCC23CC(CC[C@@H]2[C@@]12C[C@@H](c1ccoc1)OC2=O)OC3=O` (some centres not stated): the GI50 with SF-268, in the experiment on MOLT-4, in the experiment with NCI-H23, in the experiment with OVCAR-4, in the experiment with KM12 and with SF-539 was > 100 µM (inactive) each time. The GI50 with RPMI-8226, with SK-OV-3, with 786-0, with HT-29, in the experiment with M14 and in the experiment with SF-295 was > 100 µM (inactive) each time. For the same compound, the GI50 with OVCAR-8, in the experiment with IGROV-1, with HOP-62 and in the experiment with SN12C was > 100 µM (inactive) in each case.

Regarding `CC(NC1CCCC[C@@H]1O)c1ccccc1` (some centres not stated), the GI50 in the experiment with MOLT-4, in the experiment with OVCAR-4, in the experiment on KM12, in the experiment on RPMI-8226, in the experiment on SK-OV-3 and in the experiment with 786-0 was > 100 µM (inactive) throughout. Besides, the GI50 with HT-29, in the experiment with M14, in the experiment with SF-295, in the experiment with OVCAR-8, in the experiment with SNB-75 and in the experiment on IGROV-1 was > 100 µM (inactive) throughout. Besides, the GI50 in the experiment with HOP-62 and with SN12C was > 100 µM (inactive) throughout.

For the compound `N#CC(C#N)=Cc1ccc(C(O)P(=O)(O)O)cc1` (configuration not stated), the GI50 with SF-268, with MOLT-4, in the experiment on NCI-H23, in the experiment on OVCAR-4, in the experiment on KM12 and with SF-539 was > 100 µM (inactive) each time. In addition, the GI50 with RPMI-8226, in the experiment on SK-OV-3, with 786-0, in the experiment on HT-29, in the experiment on M14 and with SF-295 was > 100 µM (inactive) in each case. The GI50 in the experiment with OVCAR-8, in the experiment on IGROV-1, with HOP-62 and in the experiment with SN12C was > 100 µM (inactive) throughout.

As for `C#Cc1c(C)c(/C=C/C(C)=C/C=C/C(C)=C/C(=O)OC)n(C)c1C`, the GI50 in the experiment with SF-268, in the experiment with MOLT-4, in the experiment with NCI-H23, with OVCAR-4, in the experiment on KM12 and with SF-539 was > 100 µM (inactive) each time. Moreover, the GI50 is > 100 µM (inactive) with RPMI-8226; 0.428 µM (active) with SK-OV-3; > 100 µM (inactive) with 786-0; > 100 µM (inactive) in the experiment with HT-29; > 100 µM (inactive) in the experiment with M14; > 100 µM (inactive) in the experiment with SF-295. For the same compound, the GI50 is > 100 µM (inactive) with OVCAR-8, 44.5 µM (inactive) in the experiment with SNB-75, > 100 µM (inactive) in the experiment with IGROV-1 and > 100 µM (inactive) with HOP-62.

On to `CC1=C[C@@H]2Cc3occc3C(C)(C)[C@@H]2CC1`, for which the GI50 with SF-268 was 20.2 µM (inactive); in the experiment with MOLT-4 it was 19.6 µM (inactive); in the experiment with NCI-H23 it was 24.5 µM (inactive); in the experiment on OVCAR-4 it was 29.4 µM (inactive); with KM12, 16.9 µM (inactive); in the experiment with SF-539, 23.8 µM (inactive). Besides, the GI50 in the experiment with SK-OV-3 is 38.1 µM (inactive); with 786-0, 19.4 µM (inactive); with HT-29, 16.6 µM (inactive); with M14, 22.3 µM (inactive); in the experiment with SF-295 it was 19.5 µM (inactive); with OVCAR-8, 19.5 µM (inactive). Further, the GI50 is 18.1 µM (inactive) in the experiment with SNB-75, > 10 µM (inactive) with IGROV-1, 32.4 µM (inactive) in the experiment on HOP-62 and 15.8 µM (inactive) with SN12C.

In the case of `CCOC(=O)C1=C(C)N(NC(N)=O)C(C)(O)C12CCOC2=O` (configuration not stated), the GI50 with SF-268, with MOLT-4, with OVCAR-4, in the experiment on KM12, in the experiment with SF-539 and in the experiment on RPMI-8226 was > 100 µM (inactive) each time. Moreover, the GI50 with SK-OV-3, in the experiment on 786-0, in the experiment on HT-29, in the experiment on M14, with SF-295 and with OVCAR-8 was > 100 µM (inactive) in each case. In addition, the GI50 in the experiment with SNB-75, in the experiment on IGROV-1, with HOP-62 and with SN12C was > 100 µM (inactive) throughout.

Consider `CCOC(=O)NC(=O)c1cn(CCSCCOC(=O)NCCCCCCNC(=O)OCCSCCn2cc(C(=O)NC(=O)OCC)c(=O)n(C)c2=O)c(=O)n(C)c1=O`, for which the GI50 with SF-268 was 24 µM (inactive); with MOLT-4 it was 5.68 µM (inactive); with NCI-H23, 19.9 µM (inactive); in the experiment on SF-539, 25.9 µM (inactive); with RPMI-8226, 20.5 µM (inactive); in the experiment on SK-OV-3, 34.7 µM (inactive). Further, the GI50 in the experiment on 786-0 is 30.3 µM (inactive); in the experiment with HT-29, 52.5 µM (inactive); with SF-295, 75.7 µM (inactive); in the experiment on OVCAR-8, 20.1 µM (inactive); with SNB-75, > 100 µM (inactive); in the experiment on HOP-62 it was 51.5 µM (inactive). Also, the GI50 in the experiment on SN12C is 21.8 µM (inactive).
